Data taken from PMC10610545, “Preclinical Evaluation of an Imidazole-Linked Heterocycle for Alzheimer’s Disease” (Pharmaceutics, 2023).

Columns and labels:
[1] = molecular target: α2-adrenergic receptor (α2-AR); experiment: Competition binding against [3H]RX821002, membranes from post-mortem human frontal cortex
Description: The inhibition constant (Ki) for each compound was obtained and is expressed as the corresponding pKi. The selectivity for these two receptors was expressed by the I2/α2 index, calculated as the antilogarithm of the […] between pKi values for I2-IR and pKi values for α2-AR.
Preparation of cellular membranes.
Human brain samples were obtained at autopsy in the Basque Institute of Legal Medicine, Bilbao, Spain. Samples from the prefrontal cortex (Brodmann’s area 9) were dissected at the time of autopsy and immediately stored at -70 °C until assay. The study was developed in compliance with policies of research and ethical review boards for postmortem brain studies.
To obtain cellular membranes (P2 fraction) the different samples were homogenized using an ultraturrax in 10 volumes of homogenization buffer (0.25 M sucrose, 5 mM Tris–HCl, pH 7.4).
The crude homogenate was centrifuged for 5 min at 1000 g (4 °C) and the supernatant was centrifuged again for 10 min at 40,000 g (4 °C). The resultant pellet was washed twice in 5 volumes of homogenization buffer and recentrifuged in similar conditions. Protein content was measured according to the method of Bradford using BSA as standard.
Competition Binding Assays.
The pharmacological activity of the compounds was evaluated through competition binding studies against the I2-IR selective radioligand [3H]2-BFI or the α2-adrenergic receptor selective radioligand [3H]RX821002. Specific binding was measured in 0.25 mL aliquots (50 mM Tris-HCl, pH 7.5) containing 100 µg of membranes, which were incubated in 96-well plates either with […]
Incubations were terminated by separating free ligand from bound ligand by rapid filtration […]
counted for radioactivity by liquid scintillation spectrometry using a MicroBeta TriLux counter (PerkinElmer). Specific binding was determined and plotted as a function of the compound concentration. Nonspecific binding was determined in the presence of idazoxan (10–5 M), a compound with well stablished affinity for I2-IR and α2-adrenergic receptors, in [3H]2-BFI and [3H]RX821002 assays. To obtain the inhibition constant (Ki) analyses of competition experiments were performed by nonlinear regression using the GraphPad Prism program. Ki values were normalized to pKi values. I2-IR/α2 selectivity index was calculated as the antilogarithm of the difference between pKi values for I2-IR and pKi values for α2-ARs.

PSD95 = experiment: Western blot of hippocampal PSD95 in 5XFAD mice; format: in vivo, mouse; settings: 5XFAD hippocampus, 2 mg/Kg, vs 5XFAD Control
Protocol: (§1) Four-month-old female and male Wt and 5XFAD mice (n = 32) were used to carry out cognitive and molecular analyses. […] The animals had free access to food and water and were kept under standard temperature conditions (22 ± 2 °C) and 12 h/12 h light/dark cycles (300 lx/0 lx). […] After 4 weeks of treatment, cognitive tests, including short- and long-term memory and OLT, were performed to study the effects of treatment on learning and memory. Weight and water consumption were controlled each week, and the LSL33 concentration was adjusted accordingly to reach the optimal dose until euthanasia.
Three days after cognitive tests, mice were euthanized for protein extraction and RNA and DNA isolation. After euthanasia, the brains were immediately removed from the skulls, and the hippocampi were dissected, frozen, and maintained at −80 °C.
For western blotting (WB), aliquots of 20 μg of hippocampal protein were used. […]
The membranes were washed and incubated with secondary antibodies for 1 h at room temperature. […] Protein loading was routinely monitored by immunodetection of glyceraldehyde-3-phosphate dehydrogenase (GAPDH).
Figure 7 Results from an in vivo study of synaptic plasticity markers. (A) Representative protein levels and quantification by WB for PSD95. (B,C) Representative gene expression for Ngf and Bdnf Gene expression levels were determined by real-time PCR. […]

5XFAD mice = experiment: Object location test (OLT) in 5XFAD mice; format: in vivo, mouse; settings: 2 mg/Kg in drinking water, 4 weeks, vs 5XFAD Control
Protocol: as §1
The OLT evaluated the spontaneous tendency of rodents to spend more time exploring a novel object location than a familiar object location and recognizing when an object has been relocated. OLT was performed using a white plywood apparatus (50 × 50 × 25 cm), in which three walls were white and one was black. On the first day, animals were just habituated to the empty open-field arena for 10 min. On the second day, two objects were placed in front of the black wall, equidistant from each other and the wall. The objects were 10 cm high and identical. […] Trials were recorded using a camera mounted above the open field area, and the total exploration time was determined by scoring TN and TO. DI was calculated, defined as (TN−TO)/(TN+TO). […]

SMILES	[3H]-RX821002 α2 pKi [1]	PSD95 protein levels (PSD95)	OLT discrimination index (DI) (5XFAD mice)
Cl.c1ccc2sc(-c3ncc[nH]3)cc2c1 [LSL33, 2-(Benzo[b]thiophene-2-yl)-1H-imidazole hydrochloride]	4.70 ± 0.12	increase in PSD95	increase in the discrimination index (DI)
c1ccc2oc(-c3ncc[nH]3)cc2c1 [LSL60101, reference compound]	3.18 ± 0.17		
